According to patent US20040186081A1, “Naaladase inhibitors for treating opioid tolerance” (Guilford Pharmaceuticals Inc., priority 2003, published 2004):
pIC50, pKi: −log10 of the molar value.

biological target: NAALADase (Homo sapiens, UniProt Q04609); assay: In vitro inhibition of NAALADase activity; format: biochemical; conditions: not given
Sequence (Q04609 whole entry): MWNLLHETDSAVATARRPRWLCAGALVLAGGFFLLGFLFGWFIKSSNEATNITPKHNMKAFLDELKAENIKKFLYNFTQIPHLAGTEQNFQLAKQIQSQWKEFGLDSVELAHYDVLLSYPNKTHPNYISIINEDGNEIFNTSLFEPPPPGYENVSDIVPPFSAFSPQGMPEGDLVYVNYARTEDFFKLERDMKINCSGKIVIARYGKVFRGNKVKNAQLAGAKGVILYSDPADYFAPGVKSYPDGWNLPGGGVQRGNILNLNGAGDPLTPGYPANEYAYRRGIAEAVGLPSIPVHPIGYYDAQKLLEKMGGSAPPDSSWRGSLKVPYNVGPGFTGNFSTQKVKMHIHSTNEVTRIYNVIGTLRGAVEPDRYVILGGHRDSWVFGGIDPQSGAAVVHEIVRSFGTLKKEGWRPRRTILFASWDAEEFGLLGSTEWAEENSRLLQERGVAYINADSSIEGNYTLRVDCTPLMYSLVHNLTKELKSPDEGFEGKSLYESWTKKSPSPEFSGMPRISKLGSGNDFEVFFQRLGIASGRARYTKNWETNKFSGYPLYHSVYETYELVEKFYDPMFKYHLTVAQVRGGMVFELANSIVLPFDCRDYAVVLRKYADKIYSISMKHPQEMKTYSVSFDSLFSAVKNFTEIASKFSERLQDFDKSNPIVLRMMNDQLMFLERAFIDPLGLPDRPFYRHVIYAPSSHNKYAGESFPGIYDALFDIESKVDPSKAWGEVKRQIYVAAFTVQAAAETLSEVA

`O=C(O)c1ccc(C(=O)O)c(S(=O)(=O)c2cc(C(=O)O)ccc2C(=O)O)c1` [2-[(2,5-dicarboxyphenyl)sulfonyl]-1,4-benzenedicarboxylic acid] and `O=C(O)c1ccc(S(=O)(=O)c2cc(C(=O)O)ccc2C(=O)O)cc1` [2-[(4-carboxyphenyl)sulfonyl]-1,4-benzenedicarboxylic acid] are within 0.2 log units of each other in pKi: 5.73 for the first, 5.63 for the second.

First: O=C(O)c1ccc(C(=O)O)c(Sc2ccccc2C(=O)O)c1 [2-[(2-carboxyphenyl)thio]-1,4-benzenedicarboxylic acid]
Second: O=C(O)Cc1cc(C(=O)O)ccc1C(=O)O [2-carboxymethyl-1,4-benzenedicarboxylic acid]
The pKi of the first is 1.19 log units higher: 6.24 for the first, 5.05 for the second.

same assay, conditions: read-out: IC50

First: O=C(O)c1ccc(COc2cccc(CCS)c2C(=O)O)c(Br)c1 [2-[(2-bromo-4-carboxyphenyl)methoxy]-6-(2-mercaptoethyl)-benzoic acid]
Second: COc1cc(C(=O)O)ccc1COc1cccc(CCS)c1C(=O)O [2-[(4-carboxy-2-methoxyphenyl)methoxy]-6-(2-mercaptoethyl)-benzoic acid]
The pIC50 of the first is 0.43 log units higher: 8.58 for the first, 8.15 for the second.

First: O=C(O)c1ccccc1COc1cccc(CCS)c1C(=O)O [2-[(2-carboxyphenyl)methoxy]-6-(2-mercaptoethyl)-benzoic acid]
Second: O=C(O)c1c(CCS)cccc1OCc1ccccc1Cl [2-[(2-chlorophenyl)methoxy]-6-(2-mercaptoethyl)-benzoic acid]
The pIC50 of the first is 1.14 log units higher: 7.94 for the first, 6.80 for the second. The first is the more potent here.

Going from `O=C(O)c1ccc(COc2cccc(CCS)c2C(=O)O)cc1Br` [2-[(3-bromo-4-carboxyphenyl)methoxy]-6-(2-mercaptoethyl)-benzoic acid] to `COc1cc(COc2cccc(CCS)c2C(=O)O)ccc1C(=O)O` [2-[(4-carboxy-3-methoxyphenyl)methoxy]-6-(2-mercaptoethyl)-benzoic acid], the pIC50 falls from 10.01 to 7.98 (2.03 log units).

`O=C(O)c1ccc(COc2cccc(CCS)c2C(=O)O)cc1` [2-[(4-carboxyphenyl)methoxy]-6-(2-mercaptoethyl)-benzoic acid] and `O=C(O)c1ccc(-c2cccc(CCS)c2C(=O)O)cc1` [3-(2-mercaptoethyl)-[1,1′-biphenyl]-2,4′-dicarboxylic acid] are within 0.2 log units of each other in pIC50: 8.40 for the first, 8.37 for the second.

Going from `CC(C)(C)c1cc(COc2cccc(CCS)c2C(=O)O)cc(C(=O)O)c1` [2-[[3-carboxy-5-(1,1-dimethylethyl)phenyl]methoxy]-6-(2-mercaptoethyl)-benzoic acid] to `O=C(CCc1cccc(OCc2cccc(C(=O)O)c2)c1)NO` [3-[3-(2-Hydroxycarbamoyl-ethyl)-phenoxymethyl]-benzoic acid], the pIC50 falls from 7.63 to 4.03 (3.60 log units).

First: O=C(O)c1ccc(Br)c(CC(CCCS)C(=O)O)c1 (stereo not drawn) [2-bromo-5-carboxy-alpha-(3-mercaptopropyl)-benzenepropanoic acid]
Second: O=C(O)c1ccccc1CC(CCCS)C(=O)O (stereo not drawn) [2-carboxy-alpha-(3-mercaptopropyl)-benzenepropanoic acid]
The pIC50 of the first is 2.71 log units higher: 8.48 for the first, 5.77 for the second. The first is the more potent here.

First: O=C(O)C(CCCS)Cc1ccccc1Cl (stereo not drawn) [2-chloro-alpha-(3-mercaptopropyl)-benzenepropanoic acid]
Second: N#Cc1ccccc1CC(CCCS)C(=O)O (stereo not drawn) [2-cyano-alpha-(3-mercaptopropyl)-benzenepropanoic acid]
The pIC50 of the first is 0.48 log units lower: 5.87 for the first, 6.35 for the second. The second is the more potent here.

First: O=C(O)c1ccc(Cl)c(OC(CCCS)C(=O)O)c1 (stereo not drawn) [3-(1-carboxy-4-mercaptobutoxy)-4-chloro-benzoic acid]
Second: O=C(O)c1ccc(F)c(OC(CCCS)C(=O)O)c1 (stereo not drawn) [3-(1-carboxy-4-mercaptobutoxy)-4-fluoro-benzoic acid]
The pIC50 of the first is 0.53 log units higher: 6.93 for the first, 6.40 for the second.

First: COc1ccc(C(=O)O)cc1OC(CCCS)C(=O)O (stereo not drawn) [3-(1-carboxy-4-mercaptobutoxy)-4-methoxy-benzoic acid]
Second: O=C(O)Cc1cccc(OC(CCCS)C(=O)O)c1 (stereo not drawn) [3-(1-carboxy-4-mercaptobutoxy)-benzeneacetic acid]
The pIC50 of the first is 0.65 log units lower: 6.54 for the first, 7.19 for the second. The second is the more potent here.

Going from `O=C(CCOc1cccc(-c2cccc(C(=O)O)c2)c1C(=O)O)NO` [3-(2-1-Hydroxycarbamoyl-ethoxy)-biphenyl-2,3′-dicarboxylic acid] to `O=C(CCCOc1cccc(-c2cccc(C(=O)O)c2)c1C(=O)O)NO` [3-(3-Hydroxycarbamoyl-propoxy)-biphenyl-2,3′-dicarboxylic acid], the pIC50 rises from 4.83 to 5.04 (0.21 log units). The second is the more potent here.

Compared with `O=C(CSCCc1cccc(-c2cccc(C(=O)O)c2)c1C(=O)O)NO` [3-(2-1-Hydroxycarbamoyl-methylsulfanyl-ethyl)-biphenyl-2,3′-dicarboxylic acid], `O=C(COc1cccc(-c2cccc(C(=O)O)c2)c1C(=O)O)NO` [3-Hydroxycarbamoylmethoxy-biphenyl-2,3′-dicarboxylic acid] is 2.03 log units lower in pIC50: 6.59 for the first, 4.56 for the second. The first is the more potent here.

Going from `COC(=O)c1cccc(CC(C(=O)O)C(=O)NO)c1` (stereo not drawn) [3-(2-Carboxy-2-hydroxycarbamoyl-ethyl)-benzoic acid methyl ester] to `O=C(O)c1cccc(CC(C(=O)O)C(=O)NO)c1` (stereo not drawn) [3-(2-Carboxy-2-hydroxycarbamoyl-ethyl)-benzoic acid], the pIC50 rises from at most 4.00 to 5.34.

Going from `O=C(O)c1cccc(CC(CNO)C(=O)O)c1` (stereo not drawn) [3-(2-Carboxy-3-hydroxyamino-propyl)-benzoic acid] to `O=C(CC(Cc1cccc(C(=O)O)c1)C(=O)O)NO` (stereo not drawn) [3-(2-Carboxy-3-hydroxycarbamoyl-propyl)-benzoic acid], the pIC50 rises from 4.36 to 6.16 (1.80 log units). The second is the more potent here.

First: O=C(CSCC(Cc1cccc(C(=O)O)c1)C(=O)O)NO (stereo not drawn) [3-(2-Carboxy-3-hydroxycarbamoylmethyl-sulfanylpropyl)-benzoic acid]
Second: O=C(CSCCC(Cc1cccc(C(=O)O)c1)C(=O)O)NO (stereo not drawn) [3-(2-Carboxy-4-hydroxycarbamoylmethyl-sulfanylbutyl)-benzoic acid]
The pIC50 of the first is 0.20 log units higher: 5.51 for the first, 5.31 for the second. The first is the more potent here.

`O=C(CCC(Cc1cccc(C(=O)O)c1)C(=O)O)NO` (stereo not drawn) [3-(2-Carboxy-4-hydroxycarbamoyl-butyl)-benzoic acid] and `O=C(CCCC(Cc1cccc(C(=O)O)c1)C(=O)O)NO` (stereo not drawn) [3-(2-Carboxy-5-hydroxycarbamoyl-pentyl)-benzoic acid] are within 0.2 log units of each other in pIC50: 7.32 for the first, 7.18 for the second.

Going from `O=C(CSCCCC(Cc1cccc(C(=O)O)c1)C(=O)O)NO` (stereo not drawn) [3-(2-Carboxy-5-hydroxycarbamoylmethyl-sulfanyl-pentyl)-benzoic acid] to `O=C(CSCCCCC(Cc1cccc(C(=O)O)c1)C(=O)O)NO` (stereo not drawn) [3-(2-Carboxy-6-hydroxycarbamoylmethyl-sulfanylhexyl)-benzoic acid], the pIC50 falls from 6.40 to 5.48 (0.92 log units). The first is the more potent here.

Going from `O=C(CSCCCC(Cc1cc(C(=O)O)ccc1Cl)C(=O)O)NO` (stereo not drawn) [3-(2-Carboxy-5-hydroxycarbamoylmethyl-sulfanylpentyl)-4-chloro-benzoic acid] to `O=C(CSCCCC(Cc1cccc(C(=O)O)c1)C(=O)O)NO` (stereo not drawn) [3-(2-Carboxy-5-hydroxycarbamoylmethyl-sulfanylpentyl)-benzoic acid], the pIC50 rises from 4.80 to 6.42 (1.62 log units).

`O=C(CSCCCC(Cc1cc(Oc2ccccc2)cc(C(=O)O)c1)C(=O)O)NO` (stereo not drawn) [3-(2-Carboxy-5-hydroxycarbamoylmethyl-sulfanylpentyl)-5-phenoxy-benzoic acid] and `O=C(CSCCCC(Cc1cc(OCc2ccccc2)cc(C(=O)O)c1)C(=O)O)NO` (stereo not drawn) [3-Benzyloxy-5-(2-carboxy-5-hydroxycarbamoylmethyl-sulfanylpentyl)-benzoic acid] are within 0.2 log units of each other in pIC50: 5.49 for the first, 5.59 for the second.

`COC(=O)c1cccc(-c2cccc(OCCC(=O)NO)c2C(=O)OC)c1` [3-(2-Hydroxycarbamoyl-ethoxy)-biphenyl-2,3′-dicarboxylic acid dimethyl ester] and `COC(=O)c1cccc(-c2cccc(OCC(=O)NO)c2C(=O)OC)c1` [3-Hydroxycarbamoylmethoxy-biphenyl-2,3′-dicarboxylic acid dimethyl ester] cannot be ordered by pIC50: at most 4.00 for the first, at most 4.00 for the second.

First: O=C(O)c1ccccc1Oc1cccc(CC(CCCS)C(=O)O)c1 (stereo not drawn) [3-(2-carboxyphenoxy)-alpha-(3-mercaptopropyl)-benzenepropanoic acid]
Second: O=C(O)c1cccc(CC(CCCSC(C(=O)NO)c2ccccc2)C(=O)O)c1 (stereo not drawn) [3-[2-Carboxy-5-(hydroxycarbamoyl-phenyl-methylsulfanyl)-pentyl]-benzoic acid]
The pIC50 of the first is 1.36 log units higher: 7.31 for the first, 5.95 for the second.

First: O=C(O)c1cccc(CCS)c1 [3-(2-mercaptoethyl)-benzoic acid]
Second: O=C(O)c1cccc(CS)c1 [3-(mercaptomethyl)-benzoic acid]
The pIC50 of the first is 0.20 log units lower: 5.22 for the first, 5.42 for the second.

First: O=C(CSCCCC(Cc1cc(Br)cc(C(=O)O)c1)C(=O)O)NO (stereo not drawn) [3-Bromo-5-(2-carboxy-5-hydroxycarbamoyl-methylsulfanylpentyl)-benzoic acid]
Second: O=C(CCSCCCC(Cc1cccc(C(=O)O)c1)C(=O)O)NO (stereo not drawn) [3-[2-Carboxy-5-(2-hydroxycarbamoyl-ethylsulfanyl)-pentyl]-benzoic acid]
The pIC50 of the first is 1.34 log units lower: 5.61 for the first, 6.95 for the second. The second is the more potent here.

`O=C(COc1cccc(C(=O)O)c1)NO` [3-Hydroxycarbamoylmethoxy-benzoic acid] and `CCC(SCC(Cc1cccc(C(=O)O)c1)C(=O)O)C(=O)NO` (stereo not drawn) [3-[2-Carboxy-3-(1-hydroxycarbamoyl-propylsulfanyl)-propyl]-benzoic acid] are within 0.2 log units of each other in pIC50: 4.39 for the first, 4.38 for the second.

Compared with `O=C(O)c1cccc(SC(CCCS)C(=O)O)c1` (stereo not drawn) [3-[1-carboxy-4-mercaptobutyl)thio]-benzoic acid], `CCC(SCCCC(Cc1cccc(C(=O)O)c1)C(=O)O)C(=O)NO` (stereo not drawn) [3-[2-Carboxy-5-(1-hydroxycarbamoyl-propylsulfanyl)-pentyl]-benzoic acid] is 2.14 log units lower in pIC50: 7.62 for the first, 5.48 for the second. The first is the more potent here.

`O=C(CCCSCC(Cc1cccc(C(=O)O)c1)C(=O)O)NO` (stereo not drawn) [3-[2-Carboxy-3-(3-hydroxycarbamoyl-propylsulfanyl)-propyl]-benzoic acid] and `O=C(CCCCSCCCC(Cc1cccc(C(=O)O)c1)C(=O)O)NO` (stereo not drawn) [3-[2-Carboxy-5-(4-hydroxycarbamoyl-butylsulfanyl)-pentyl]-benzoic acid] are within 0.2 log units of each other in pIC50: 5.22 for the first, 5.12 for the second.

Compared with `CCC(SCCC(Cc1cccc(C(=O)O)c1)C(=O)O)C(=O)NO` (stereo not drawn) [3-[2-Carboxy-4-(1-hydroxycarbamoyl-propylsulfanyl)-butyl]-benzoic acid], `CCCC(SCCCC(Cc1cccc(C(=O)O)c1)C(=O)O)C(=O)NO` (stereo not drawn) [3-[2-Carboxy-5-(1-hydroxycarbamoyl-butylsulfanyl)-pentyl]-benzoic acid] is 1.10 log units higher in pIC50: 4.72 for the first, 5.82 for the second. The second is the more potent here.

In the case of `CC(C)C(SCCCC(Cc1cccc(C(=O)O)c1)C(=O)O)C(=O)NO` (stereo not drawn) [3-[2-Carboxy-5-(1-hydroxycarbamoyl-2-methyl-propylsulfanyl)-pentyl]-benzoic acid], the pIC50 was 5.55.
